Data published in ChEMBL document CHEMBL4138151, “Discovery of a head-to-tail cyclic peptide as the Keap1-Nrf2 protein-protein interaction inhibitor with high cell potency” (Eur J Med Chem, 2018).
Activity calls are given as the source filed them. The rule behind the calls is not given here.

What was measured:
[1] = biological target: T1, Kelch-like ECH-associated protein 1/Nuclear factor erythroid 2-related factor 2 (Mus musculus) (UniProt Q60795+Q9Z2X8); experiment: Inhibition of Keap1/Nrf2 protein-protein interaction in mouse RAW264.7 cells assessed as increase in GCLM levels up to 10 uM after 8 hrs by Western blot analysis; assay type: cell-based
T1 sequence (Q60795 whole entry, looked up): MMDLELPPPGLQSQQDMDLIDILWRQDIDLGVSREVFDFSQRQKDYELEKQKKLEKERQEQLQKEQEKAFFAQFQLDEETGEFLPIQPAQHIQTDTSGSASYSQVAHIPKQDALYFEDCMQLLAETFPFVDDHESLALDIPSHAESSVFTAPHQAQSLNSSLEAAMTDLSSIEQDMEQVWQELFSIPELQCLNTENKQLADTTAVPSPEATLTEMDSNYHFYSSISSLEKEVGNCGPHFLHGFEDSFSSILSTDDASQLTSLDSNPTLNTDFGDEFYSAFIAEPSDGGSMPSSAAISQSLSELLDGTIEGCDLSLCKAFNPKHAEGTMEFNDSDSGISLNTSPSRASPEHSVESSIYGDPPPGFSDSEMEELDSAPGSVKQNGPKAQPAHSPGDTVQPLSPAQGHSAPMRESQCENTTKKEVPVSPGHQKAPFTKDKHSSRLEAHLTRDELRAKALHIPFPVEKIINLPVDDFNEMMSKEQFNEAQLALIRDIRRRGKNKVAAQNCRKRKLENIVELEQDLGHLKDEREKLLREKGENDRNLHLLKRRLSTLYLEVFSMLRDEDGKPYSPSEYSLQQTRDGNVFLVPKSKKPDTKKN
T1 sequence (Q9Z2X8 whole entry, looked up): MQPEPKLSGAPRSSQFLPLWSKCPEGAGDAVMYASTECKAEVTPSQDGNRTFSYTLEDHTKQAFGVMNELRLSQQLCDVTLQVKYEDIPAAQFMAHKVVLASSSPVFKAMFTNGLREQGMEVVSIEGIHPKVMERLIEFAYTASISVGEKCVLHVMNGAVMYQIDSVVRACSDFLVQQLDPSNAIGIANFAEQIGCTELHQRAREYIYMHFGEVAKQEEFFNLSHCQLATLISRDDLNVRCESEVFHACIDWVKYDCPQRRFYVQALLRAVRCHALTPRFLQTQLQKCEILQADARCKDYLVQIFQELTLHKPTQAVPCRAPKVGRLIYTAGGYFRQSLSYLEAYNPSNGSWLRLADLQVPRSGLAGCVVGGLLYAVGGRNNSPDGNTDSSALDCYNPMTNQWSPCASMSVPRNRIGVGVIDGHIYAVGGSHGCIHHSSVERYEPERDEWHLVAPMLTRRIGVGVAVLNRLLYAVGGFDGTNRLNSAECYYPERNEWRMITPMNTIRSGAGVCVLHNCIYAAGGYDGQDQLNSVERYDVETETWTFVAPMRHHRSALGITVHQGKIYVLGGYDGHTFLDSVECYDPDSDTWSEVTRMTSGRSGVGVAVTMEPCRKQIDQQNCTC

[2] = biological target: T1, Kelch-like ECH-associated protein 1/Nuclear factor erythroid 2-related factor 2 (Mus musculus); experiment: Inhibition of Keap1/Nrf2 protein-protein interaction in mouse RAW264.7 cells assessed as upregulation of GCLM mRNA expression at 0.1 to 10 uM after 10 hrs by quantitative real-time-PCR analysis; assay type: cell-based
[3] = biological target: T1, Kelch-like ECH-associated protein 1/Nuclear factor erythroid 2-related factor 2 (Mus musculus); experiment: Inhibition of Keap1/Nrf2 protein-protein interaction in mouse RAW264.7 cells assessed as upregulation of NQO1 mRNA expression at 0.1 to 10 uM after 10 hrs by quantitative real-time-PCR analysis; assay type: cell-based
[4] = biological target: T1, Kelch-like ECH-associated protein 1/Nuclear factor erythroid 2-related factor 2 (Mus musculus); experiment: Inhibition of Keap1/Nrf2 protein-protein interaction in mouse RAW264.7 cells assessed as upregulation of HO-1 mRNA expression at 0.1 to 10 uM after 10 hrs by quantitative real-time-PCR analysis; assay type: cell-based
[5] = biological target: T1, Kelch-like ECH-associated protein 1/Nuclear factor erythroid 2-related factor 2 (Mus musculus); experiment: Inhibition of Keap1/Nrf2 protein-protein interaction in mouse RAW264.7 cells assessed as increase in HO-1 levels up to 10 uM after 8 hrs by Western blot analysis; assay type: cell-based
[6] = biological target: T1, Kelch-like ECH-associated protein 1/Nuclear factor erythroid 2-related factor 2 (Mus musculus); experiment: Inhibition of Keap1/Nrf2 protein-protein interaction in mouse RAW264.7 cells assessed as increase in NQO1 levels up to 10 uM after 8 hrs by Western blot analysis; assay type: cell-based
[7] = system: RAW264.7; experiment: Anti-inflammatory activity in mouse RAW264.7 cells assessed as inhibition of LPS-induced TNFalpha production up to 10 uM pretreated for 10 hrs followed by LPS stimulation for 12 hrs by ELISA; assay type: functional, cell-based
[8] = system: RAW264.7; experiment: Anti-inflammatory activity in mouse RAW264.7 cells assessed as reduction in LPS-induced NO production by measuring NO level at 10 uM preincubated for 10 hrs followed by LPS stimulation for 12 hrs by Griess assay (reference value: 50 uM); assay type: functional
[9] = biological target: T1, Kelch-like ECH-associated protein 1/Nuclear factor erythroid 2-related factor 2 (Mus musculus); experiment: Inhibition of Keap1/Nrf2 protein-protein interaction in mouse RAW264.7 cells assessed as upregulation of NQO1 mRNA expression at 1 uM after 10 hrs by quantitative real-time-PCR analysis; assay type: cell-based
[10] = system: RAW264.7; experiment: Upregulation of SOD protein expression in mouse RAW264.7 cells at 1 uM after 8 hrs by Western blot analysis; assay type: functional, cell-based
[11] = system: RAW264.7; details: Mus musculus, up to 10 µM
Description: Anti-inflammatory activity in mouse RAW264.7 cells assessed as inhibition of LPS-induced IL-18 production up to 10 uM pretreated for 10 hrs followed by LPS stimulation for 12 hrs by ELISA

[12] = system: RAW264.7; experiment: Anti-inflammatory activity in mouse RAW264.7 cells assessed restoration of LPS-induced decrease in GSH-Px activity at 10 uM; assay type: functional, cell-based
[13] = biological target: T1, Kelch-like ECH-associated protein 1/Nuclear factor erythroid 2-related factor 2 (Mus musculus); experiment: Inhibition of Keap1/Nrf2 protein-protein interaction in mouse RAW264.7 cells assessed as upregulation of GCLM mRNA expression at 1 uM after 10 hrs by quantitative real-time-PCR analysis; assay type: cell-based
[14] = system: RAW264.7; experiment: Anti-inflammatory activity in mouse RAW264.7 cells assessed inhibition of LPS-induced increase in MPO activity at 10 uM; assay type: functional, cell-based
[15] = system: RAW264.7; experiment: Anti-inflammatory activity in mouse RAW264.7 cells assessed as restoration of LPS-induced decrease in SOD activity at 10 uM; assay type: functional, cell-based
[16] = system: RAW264.7; experiment: Anti-inflammatory activity in mouse RAW264.7 cells assessed as inhibition of LPS-induced IL-1beta production up to 10 uM pretreated for 10 hrs followed by LPS stimulation for 12 hrs by ELISA; assay type: functional, cell-based
[17] = system: RAW264.7; experiment: Inhibition of LPS-induced increase in ROS levels in mouse RAW264.7 cells up to 10 uM preincubated for 10 hrs followed by LPS stimulation for 12 hrs by cH2DCF-DA dye-based fluorescent microscopy; assay type: functional, cell-based
[18] = system: RAW264.7; experiment: Upregulation of GSH-Px protein expression in mouse RAW264.7 cells at 1 uM after 8 hrs by Western blot analysis; assay type: functional, cell-based
[19] = biological target: T1, Kelch-like ECH-associated protein 1/Nuclear factor erythroid 2-related factor 2 (Mus musculus); experiment: Inhibition of Keap1/Nrf2 protein-protein interaction in mouse RAW264.7 cells assessed as upregulation of HO1 mRNA expression at 1 uM after 10 hrs by quantitative real-time-PCR analysis; assay type: cell-based

Row | inhibition [2] | inhibition [3] | inhibition [4] | Structure (SMILES) | inhibition [1] | inhibition [5] | inhibition [6] | inhibition [7] | Activity [8] | inhibition [9] | Activity [10] | inhibition [11] | Activity [12] | inhibition [13] | inhibition [14] | Activity [15] | inhibition [16] | inhibition [17] | Activity [18] | inhibition [19]
1 | inactive | inactive | inactive | CC(=O)NCC(=O)N[C@@H](CCC(N)=O)C(=O)N[C@@H](CC(C)C)C(=O)N[C@@H](CC(=O)O)C(=O)N1CCC[C@H]1C(=O)N[C@@H](CCC(=O)O)C(=O)N[C@H](C(=O)NCC(=O)N[C@@H](CCC(=O)O)C(=O)N[C@@H](Cc1ccccc1)C(=O)N[C@@H](CC(C)C)C(=O)O)[C@@H](C)O | inactive | inactive | inactive | – | – | – | – | – | – | – | – | – | – | – | – | –
2 | – | – | – | CC(C)C[C@@H]1NC(=O)[C@H](Cc2ccccc2)NC(=O)[C@H](CCC(=O)O)NC(=O)CNC(=O)[C@H]([C@@H](C)O)NC(=O)[C@H](CCC(=O)O)NC(=O)[C@@H]2CCCN2C(=O)[C@H](CC(=O)O)NC(=O)[C@H](CC(C)C)NC(=O)[C@H](CCC(N)=O)NC(=O)CNC1=O | Active | Active | Active | Active | 14 µM | Active | Active | Active | Active | Active | Active | Active | Active | Active | Active | Active
